Assay [1] relates to DRG cells. Put plainly: CGRP release from DRG cells following cisplatin treatment. The class given is cell-based, rat. Conditions: E3330 20 μM pretreatment 3 days, then cisplatin 10 μM 24 hours. The procedure:
EXAMPLE. CGRP. Release studies were performed on cells. Briefly, neuronal cultures were washed once with HEPES buffer consisting of 25 HEPES, 135 NaCl, 3.5 KCl, 2.5 CaCl2, 1 MgCl2, 3.3 d-glucose (each in mmol/L), and 0.1% bovine serum albumin (pH 7.4), maintained at 37° C., and then incubated for successive 10-min intervals with 0.4 mL of the same buffer in the absence or presence of drugs. Basal or resting release was determined by exposing the cells to HEPES buffer alone, whereas stimulated release was determined by exposing the cultures to 30 nmol/L capsaicin. Cells then were reexposed to HEPES buffer without drugs for one or two 10-min incubations to reestablish resting release. During incubations, the cells were maintained in at 37° C. After each incubation, the buffer was removed to measure the amount of CGRP using RIAs. […] Total content is determined by adding the total amount released in all incubations to the amount remaining in the cells. The release data is calculated as a percentage of the total peptide content in the cells. Because CGRP was measured by RIA, results are expressed as CGRP-like immunoreactivity (iCGRP). […]
EXAMPLE. […] Basal levels of CGRP without induction and cumulative total basal are both monitored, indicating correct functioning of the assay.

Assay [2] has as its system cisplatin treated neuronal cells. Kind of assay: Trypan blue cell survival following cisplatin treatment. The class given is cell-based, rat. Conditions: E3330 20 μM; cisplatin 0-100 mM; trypan blue on days 11, 12, 13. From the text: EXAMPLE. Assay Methods. Sensory neuronal cultures grown on Lab-Tek microscope chamber slides were processed for immunofluorescence as previously published using a peripherin antibody (1:500) and HA antibody (1:500)[28]. Images were collected in red (peripherin), green (HA), and bright-field modes. A Zeiss LSM offline browser (R4.0: Carl Zeiss Inc.; Thornwood, N.Y.) was used to determine co-localization of peripherin and HA. For trypan blue exculsion, equal volume of 0.4% (w/v) Trypan blue to cell suspension were combined, mixed and scored under phase contrast microscope. Dead cells were those that take up the trypan blue and stain blue, whereas the live cells have yellow nuclei.
Referring to FIG. 2, cells were harvested on day 1. The corresponding siRNA (100 nM) was added on day 3, and removed on day 5. E3330 (20 μM) was dosed on day 7 and remained in the cultures for 2 days. E3330 (20 μM) and/or cisplatin ([…]) are each dosed day 10 with fresh media. Trypan blue assay is performed on days 11, 12, and 13. CGRP release assay is performed on day 11. N=3, *p<0.05.

As for `CCCCCCCCC/C(=C\C1=C(C)C(=O)C(OC)=C(OC)C1=O)C(=O)O` [Example 28], the “total content CGRP” value in assay [1] (FIG. 3(B)) is reported as “no statistical significance difference”. Besides, the “capsaicin-induced CGRP release from DRG cells after cisplatin” value in assay [1] (capsaicin 30 nM) is “recovery of CGRP release”. In assay [2], the “cell death in cisplatin treated neuronal cells” value was “attenuate cell death”.
